{"source": "paper PMC7844219", "about": "“Antifibrotic effect of novel neutrophil gelatinase-associated lipocalin inhibitors in cardiac and renal disease models” (Scientific Reports, 2021)", "key": {"[1]": {"test_system": "myocardial infarction mouse model", "assay": "Myocardial infarction (MI) mouse model, left coronary artery ligation", "format": "in vivo", "settings": "MI mice", "method": "Animals were housed in a climate-controlled facility with a 12-h/12-h light/dark cycle and provided free access to food and water. Experiments were approved by the Darwin ethics committee of Sorbonne University, and conducted according to the INSERM animal care and use committee guidelines. The NGAL inhibitor GP1 was incorporated in regular chow (A04, Safe, Augy, France) at the dose of 625 mg GP1/kg of chow to achieve a low dose of 100 mg/kg/day of GP1 administered to the mice (based on a daily consumption of 4 g of chow).\nMyocardial infarction (MI) was induced as previously described. Briefly, Chronic Heart Failure (CHF) resulted from left ventricle MI that was induced by left coronary artery ligation in 8 week-old male mice. Mice were anesthetized with intraperitoneal injections of ketamine (90 mg/kg, Merial, France) and xylazine (3.6 mg/kg, Bayer, France), followed by artificial ventilation. Anesthesia and sedation were controlled by monitoring heart rate and by performing paw pinch reflex and corneal reflex tests, before a thoracotomy was performed. The left main coronary artery was ligated close to its origin. After surgery, analgesia was prolonged during the awakening phase by an intramuscular injection of Beprucare (50 µg/kg). Post-infarction mortality in this mouse model is about 30–40%, primarily occurring around days 4–7 after MI. Sham-operated mice (control) were subjected to the same protocol except that the artery was not ligated. The inhibitor was administered the 8 day after MI for the indicated period. Tissue were harvested after 12 weeks after MI. Left ventricle diastolic and systolic diameters were measured in anesthetized (isofluorane 1.5%) mice, according to the American Society of Echocardiography’s leading-edge method (using Vivid 7 echograph a 14 MHz probe). In addition, LV outflow velocity was measured by pulsed waves, and CO was calculated as follows:\nCO=aortic VTI×π×LV outflow diameter/2^2×heart rate, where VTI is velocity–time integral.\nLV hemodynamic was assessed as described previously. Briefly, mice were anesthetized (chloral 320 mg/kg, IP) and the carotid artery cannulated with a pressure–volume catheter (SPR839, Millar-Instruments, USA) and the catheter was advanced into the LV. Pressure–volume loops were obtained at baseline and during loading by gently occluding the abdominal aorta. LV end-systolic and end-diastolic pressures, dP/dtmax/min, LV relaxation constant tau and were measured/calculated with IOX software (EMKA, France). Systolic BP was measured by tail-cuff plethysmography in trained conscious mice at weeks 8–10 using a BP2000 Visitech model. BP was measured every day in the same room at the same hour for 5 consecutive days. The BP measurements (expressed as mmHg) presented are the averages of the last 3 days.\nIn the MI model, heart was harvested after hemodynamics and the atria and the ventricles were separated and weighed individually. A section of the left ventricle was immersed in Bouin fixative solution. In the CKD model, kidneys were harvested and a section was immersed in paraformaldehyde fixative solution. After fixation, the sections were dehydrated and embedded in paraffin. From these sections, 5-μm thick histologic slices were obtained and were stained with Sirius Red. For the measurement of cardiac or renal collagen density, slides were examined and photographed under a light microscope (Zeiss) at 40× magnification. Collagen content was calculated as percentage of collagen area to total area of the image. Perivascular collagen was excluded from the analysis. For tubular lesions scoring, kidney slides were stained with Periodic Acid-Schiff kit (Sigma) and the score of tubules with injury (epithelial cell necrosis and detachment, and tubular dilation) was analyzed blinded to the experimental groups. […]"}, "[2]": {"test_system": "TGFβ-treated human cardiac fibroblasts", "assay": "Specificity: IL6 and Col I secretion in TGFβ-treated human cardiac fibroblasts", "format": "cell-based", "settings": "10 µM, Fig. S5", "method": "Primary human cardiac fibroblasts (HCF) were obtained from Promocell (Heidelberg, Germany) and maintained in Fibroblast Media 3 following manufacturer’s instructions (Promocell). Cells were used between passages 5 and 7. Cells were stimulated with recombinant hNGAL (500 ng/mL, R&D Systems) or with TGFβ (10 ng/mL, R&D Systems) for 24 h. To assess cell proliferation the MTT test was used following provider’s instructions (Roche). For protein analysis. Primary Mouse Kidney Fibroblasts (MKF) were isolated from Wild Type (WT) mice. Briefly, 8 weeks old mice were sacrificed by cervical dislocation and kidneys were cleaned and rinsed in cold DPBS (Dulbecco's Phosphate-Buffered Saline). The renal cortex was minced and incubated in Dulbecco’s modified eagle medium/Nutrient mixture F-12 (DMEM/F12, Sigma) containing 1 mg/mL collagenase A (Roche) during 25 min at 37 °C. The digestion was inactivated by adding culture medium (DMEM/F12 + 10% FBS) then the cell suspension was passed through a 100-μm cell strainer. After centrifugation, the pellet (containing MKF) was diluted with culture medium then plated in 75 cm^2 culture flask. After 24 h MKF were washed with DPBS before replacement of fresh culture medium. […]\nIL6 and collagen type I concentrations were measured in cardiac tissue and cell supernatants by ELISA according to the manufacturer's instructions (R&D Systems)."}, "[3]": {"test_system": "human plasma protein", "assay": "Binding to human plasma protein", "format": "in vitro ADME", "method": "Several parameters have been evaluated to determine ADME-Tox profile of the compounds. Two specific toxicity assays have been performed to assess hepatoxicity and cardiotoxicity. Hepatotoxicity was evaluated in isolated hepatocytes from swiss mice and determined by the thiazolyl blue tetrazolium bromide colorimetric assay (sigma, St Louis, MO, USA). Cardiotoxicity was evaluated using the commercially available Predictor hERG fluorescence polarization kit (Thermo Fisher Scientific, Illinois, USA). Several absorption, distribution, metabolism, and excretion (ADME) assays have been carried out. The following experiments were undertaken: stability in human microsomes, binding to human plasma protein, and CYP3A4 inhibition assay (Vivid CYP3A4 assay, Thermo Fisher Scientific, Illinois, USA). Physico-chemical properties were also assessed such as aqueous solubility and chemical stability."}}}
{"compound": "CC(=O)c1cccc(S(=O)(=O)NCc2ccccc2-n2cccn2)c1", "note": "[GPZ614741]", "values": [{"measurement": "SV (stroke volume)", "setting": "[1]; GP1 100 mg/kg/day in the food, three months, MI untreated 0.062 ± 0.005", "value": "0.086 ± 0.004", "unit": "ml/beat"}, {"measurement": "LVESD (left ventricular end systolic diameter)", "setting": "[1]; GP1 100 mg/kg/day in the food, three months, MI untreated 5.47 ± 0.13", "value": "4.90 ± 0.39", "unit": "mm"}, {"measurement": "tau 1/2 (relaxation constant)", "setting": "[1]; GP1 100 mg/kg/day in the food, three months, MI untreated 5.82 ± 0.32", "value": "4.33 ± 0.21"}, {"measurement": "LVEDP", "setting": "[1]; GP1 100 mg/kg/day in the food, three months, MI untreated 5.91 ± 0.49", "value": "4.41 ± 0.57", "unit": "mmHg"}, {"measurement": "LVEDD (left ventricular end diastolic diameter)", "setting": "[1]; GP1 100 mg/kg/day in the food, three months, MI untreated 6.31 ± 0.12", "value": "5.88 ± 0.39", "unit": "mm"}, {"measurement": "tau e (relaxation constant)", "setting": "[1]; GP1 100 mg/kg/day in the food, three months, MI untreated 7.97 ± 0.45", "value": "6.08 ± 0.27"}, {"measurement": "LVW/TL (left ventricle weight/tibia length)", "setting": "[1]; GP1 100 mg/kg/day in the food, three months, MI untreated 8.3 ± 0.3", "value": "8.8 ± 0.6", "unit": "mg/mm"}, {"measurement": "HW/TL (heart weight/tibia length)", "setting": "[1]; GP1 100 mg/kg/day in the food, three months, MI untreated 10.9 ± 0.4", "value": "11.3 ± 0.8", "unit": "mg/mm"}, {"measurement": "FS (fractional shortening)", "setting": "[1]; GP1 100 mg/kg/day in the food, three months, MI untreated 13.4 ± 1.0", "value": "17.2 ± 1.3", "unit": "%"}, {"measurement": "CO (cardiac output)", "setting": "[1]; GP1 100 mg/kg/day in the food, three months, MI untreated 29.4 ± 1.9", "value": "47.1 ± 3.3", "unit": "mL/min"}, {"measurement": "LVESP (left ventricular end systolic pressure)", "setting": "[1]; GP1 100 mg/kg/day in the food, three months, MI untreated 78.82 ± 2.76", "value": "82.31 ± 4.22", "unit": "mmHg"}, {"measurement": "LV (dP/dtmin), relaxation index", "setting": "[1]; GP1 100 mg/kg/day in the food, three months, MI untreated 3117 ± 253", "value": "4487 ± 413"}, {"measurement": "LV (dP/dtmax), contractility index", "setting": "[1]; GP1 100 mg/kg/day in the food, three months, MI untreated 3894 ± 259", "value": "4501 ± 320"}, {"measurement": "LV interstitial collagen deposition vs non-treated MI group", "setting": "[1]; GP1 100 mg/kg/day in the food, Fig. 2A", "value": "significantly lower"}, {"measurement": "Infarct size in mid LV sections", "setting": "[1]; GP1-treated, untreated 39.0 ± 2.3, n = 4–9, NS", "value": "40.0 ± 1.8", "unit": "%"}, {"measurement": "Upregulation of cardiac IL6 protein and inflammatory markers CD68, CD80, CD86", "setting": "[1]; GP1, Fig. 2E", "value": "significantly prevented"}, {"measurement": "Upregulation of Col I, αSMA and CTGF protein levels", "setting": "[1]; three months of GP1, Fig. 2B–D", "value": "significantly prevented"}, {"measurement": "Effect on TGFβ-increased IL6 and Col I secretion", "setting": "[2]", "value": "no inhibitory effect"}, {"measurement": "Plasma protein binding (PPB), in words", "setting": "[3]", "value": "low"}, {"measurement": "hPPB%", "setting": "[3]; Table S5, human plasma protein binding", "value": 71.16, "unit": "%"}]}
